Read-outs that look alike come from different tables or passages of the source.
Columns and labels:
BCRP = biological target: T1, BCRP (Homo sapiens, UniProt Q9UNQ0); set-up: method as in PMID 28925930; conditions: following curcumin pretreatment; subjects with ABCG2 421CC genotype; cited from earlier work
T1 sequence (Q9UNQ0 1-655): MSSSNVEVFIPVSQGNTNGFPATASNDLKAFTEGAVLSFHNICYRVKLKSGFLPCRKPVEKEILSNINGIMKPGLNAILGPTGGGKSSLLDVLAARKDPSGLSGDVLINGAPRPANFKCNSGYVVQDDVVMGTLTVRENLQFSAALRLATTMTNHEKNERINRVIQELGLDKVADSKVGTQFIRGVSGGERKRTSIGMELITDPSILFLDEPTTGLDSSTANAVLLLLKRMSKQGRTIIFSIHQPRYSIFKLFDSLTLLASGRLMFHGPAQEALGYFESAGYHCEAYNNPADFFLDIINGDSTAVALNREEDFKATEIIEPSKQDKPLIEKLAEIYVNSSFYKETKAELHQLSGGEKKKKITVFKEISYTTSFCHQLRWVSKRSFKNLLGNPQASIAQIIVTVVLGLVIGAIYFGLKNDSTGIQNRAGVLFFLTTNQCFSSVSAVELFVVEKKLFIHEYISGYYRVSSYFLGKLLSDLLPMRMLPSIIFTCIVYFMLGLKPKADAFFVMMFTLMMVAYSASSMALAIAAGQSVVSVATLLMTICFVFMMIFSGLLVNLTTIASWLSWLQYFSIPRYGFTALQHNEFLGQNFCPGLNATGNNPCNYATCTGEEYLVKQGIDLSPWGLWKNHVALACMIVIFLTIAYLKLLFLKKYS

MRP1 = system: MRP1; set-up: method as in PMID 26502886; conditions: MRP1-mediated transport; cited from earlier work
BCRP transporter = system: BCRP transporter; set-up: method as in PMID 25587128; conditions: cited from earlier work
MRP2 = system: MRP2; set-up: method as in PMID 26502886; conditions: MRP2-mediated transport; cited from earlier work
UGT1A1 [1] = biological target: T2, UGT1A1 (Homo sapiens, UniProt P22309); experiment: DMC-O-glucuronidation kinetics by recombinant UGT1A1; type: in vitro ADME; set-up: purchased Corning Biosciences; conditions: for CLint: Vmax/Km; for Vmax: UGT1A1, Michaelis-Menten model
T2 sequence (P22309 26-533): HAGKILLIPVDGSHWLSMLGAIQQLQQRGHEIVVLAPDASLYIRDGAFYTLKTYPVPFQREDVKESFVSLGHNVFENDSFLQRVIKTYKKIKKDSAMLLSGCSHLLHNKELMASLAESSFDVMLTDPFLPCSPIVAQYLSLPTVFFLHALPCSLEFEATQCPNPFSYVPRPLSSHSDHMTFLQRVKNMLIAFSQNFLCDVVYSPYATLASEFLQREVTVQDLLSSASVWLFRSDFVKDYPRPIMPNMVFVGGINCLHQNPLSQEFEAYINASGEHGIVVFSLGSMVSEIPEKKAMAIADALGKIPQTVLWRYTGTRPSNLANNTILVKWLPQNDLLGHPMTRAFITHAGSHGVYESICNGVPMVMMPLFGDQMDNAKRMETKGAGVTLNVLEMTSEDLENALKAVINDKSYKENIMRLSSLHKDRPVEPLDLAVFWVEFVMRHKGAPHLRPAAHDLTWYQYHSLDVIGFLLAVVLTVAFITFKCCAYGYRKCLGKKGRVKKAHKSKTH
Experimental: (§1) The glucuronidation assay was performed as previously described. Briefly, alamethicin (22 μg/mL), D-saccharic-1,4-lactone (4.4 mM), MgCl2 (0.88 mM), UGT1A1 (1.0 mg/mL) or HeLa1A1 cell lysates (2.3 mg/mL) and DMC (0.5 to 40 μM) were mixed in a 50 mM Tris buffer (pH 7.4). After a preincubation at 37°C for 5 min, UDPGA (3.5 mM) was added to the incubation system, and the mixture was further incubated. After 30 min, the reactions were terminated by the addition of ice-cold acetonitrile (200 μL). The mixed samples were centrifuged at 13,800 x g for 10 min, and the supernatant was analyzed using UHPLC.
(§2) The best model was selected based on a visual inspection of the Eadie-Hofstee plots. Briefly, the rates (V) of glucuronide formation at various substrate concentrations (S) were fitted based on the standard Eq (3). Km represents the Michaelis-Menten constant and Vmax represents the maximum rate of glucuronidation. The intrinsic clearance (CLint) was derived from Vmax/Km. Model fitting and parameter estimation were performed by GraphPad Prism V5 software (SanDiego, CA, USA).

UGT1A1 [2] = system: UGT1A1; set-up: method as in PMID 17628876; conditions: cited from earlier work
HeLa1A1 cell lysate = biological target: T3, HeLa1A1 cell lysate (Homo sapiens, UniProt P22309); experiment: DMC-O-glucuronidation kinetics by HeLa1A1 cell lysate; type: in vitro ADME; conditions: for Km / Vmax: Michaelis-Menten model; for CLint: Vmax/Km
T3 construct: expressed in transfected cells; host or cells: HeLa cells stably overexpressing UGT1A1 (HeLa1A1), used as cell lysate
T3 sequence (P22309 26-533): T2 sequence (P22309 26-533)
Experimental: HeLa1A1 cells were grown in 10-cm dishes for 72 h and then washed and harvested in 50 mM Tris buffer (pH 7.4). The collected cells were sonicated using […] in an ice-cold water bath (4°C). Subsequently, the cell lysates were centrifuged at 13,800 x g for 10 min (4°C). The supernatant was collected for use in the UGT glucuronidation activity assay. The protein concentration was determined using the bicinchoninic acid (BCA) assay (Beyotime, Shanghai, China). Due to the thermal stability of UGT1A1, the glucuronidation activity of UGT1A1 was not affected during sonication process.
as §1, §2

UGT1A3 = system: UGT1A3; set-up: method as in PMID 17628876; conditions: cited from earlier work
CYP1A2 = system: CYP1A2; set-up: method as in PMID 21287405; conditions: human CYP1A2; cited from earlier work
SULTs = system: SULTs; set-up: method as in PMID 18480186; conditions: cited from earlier work
HeLa1A1 cells = experiment: Toxicity of DMC toward HeLa1A1 cells during excretion experiments; type: cell-based, human; conditions: DMC 4 μM
2C9 = system: 2C9; set-up: method as in PMID 18480186; conditions: cited from earlier work
CYP3A4 = system: CYP3A4; set-up: method as in PMID 21287405; conditions: human CYP3A4; cited from earlier work
CYP3As = system: CYP3As; set-up: method as in PMID 18480186; conditions: cited from earlier work
[3] = system: human intestinal P-glycoprotein (P-gp); set-up: method as in PMID 19879740; conditions: cited from earlier work
[4] = set-up: method as in earlier work; conditions: cited from earlier work
UGT1A8 = system: UGT1A8; set-up: method as in PMID 17628876; conditions: cited from earlier work
UGT1A10 = system: UGT1A10; set-up: method as in PMID 17628876; conditions: cited from earlier work
UGT2B7 = system: UGT2B7; set-up: method as in PMID 17628876; conditions: cited from earlier work
[5] = set-up: method as in PMID 24480327; conditions: 2 g curcuminoids incl. 12% DMC orally, two healthy volunteers; below detection limit; cited from earlier work
UGTs = system: UGTs; set-up: method as in PMID 18480186; conditions: cited from earlier work
CYP2C9 = system: CYP2C9; set-up: method as in PMID 21287405; conditions: human CYP2C9; cited from earlier work
[6] = formation of G1, HeLa1A1 cell lysate
[7] = formation of G2, HeLa1A1 cell lysate

For `COc1cc(/C=C/C(=O)CC(=O)/C=C/c2ccc(O)c(OC)c2)ccc1O` [curcumin], the “increase in AUC of orally administered salazosulfapyridine (SASP)” value (BCRP) is listed as 3.2 fold, the IC50 (MRP1) is listed as 15 µM and the Ki (BCRP transporter) is listed as 0.7 µM. The IC50 (MRP2) was 5 µM.
Demethoxycurcumin [DMC] showed a Km (UGT1A1 [1]; formation of G1, UGT1A1, Michaelis-Menten model) of 4.5 ± 0.9 µM, a CLint (UGT1A1 [1]; formation of G1, UGT1A1) of 225.9 ± 47.3 µL/min/mg and a Vmax (UGT1A1 [1]; formation of G1 from DMC (0.5-40 μM)) of 1006.0 ± 62.8 pmol/min/mg. It also gave a Km (UGT1A1 [1]; formation of G2, UGT1A1, Michaelis-Menten model) of 2.7 ± 0.5 µM, a CLint (UGT1A1 [1]; formation of G2, UGT1A1) of 212.6 ± 38.3 µL/min/mg and a Vmax (UGT1A1 [1]; formation of G2 from DMC (0.5-40 μM)) of 576.1 ± 27.0 pmol/min/mg. For the same compound, the “catalytic activity (glucuronidation of DMC)” value (from here on “catalytic activity”) (UGT1A1 [2]) was “approximately 1600 pmol/min/mg”, the Km (HeLa1A1 cell lysate; [6]) was 5 ± 1.3 µM and the Vmax (HeLa1A1 cell lysate; [6]) was 264.5±22.3 ( ^***) pmol/min/mg. For the same compound, the CLint (HeLa1A1 cell lysate; [6]) was 53.0±14.5 ( ^***) μL/min/mg, the Km (HeLa1A1 cell lysate; [7]) was 3.8 ± 0.9 µM and the Vmax (HeLa1A1 cell lysate; [7]) was 167.4±11.3 (^###) pmol/min/mg. The CLint (HeLa1A1 cell lysate; [7]) was 43.9±10.4 (^###) μL/min/mg, the “catalytic activity” value (UGT1A3) was “less than 1100 pmol/min/mg” and the IC50 (CYP1A2) was 34 µM. The IC50 (SULTs) was 1.7 µM, the “toxicity toward HeLa1A1 cells” value (HeLa1A1 cells) was “did not exert significant toxicity” and the IC50 (2C9) was 8.8 µM. For the same compound, the IC50 (CYP3A4) was 7 µM, the IC50 (CYP3As) was 31.5 µM and the “inhibition of P-gp activities” value [3] was “capable of inhibiting”. For the same compound, the “tissue distribution of free DMC” value ([4]; heart) was roughly 140 ng/g, the “tissue distribution of free DMC” value ([4]; intestine) was roughly 150000 ng/g and the “tissue distribution of free DMC” value ([4]; kidney) was roughly 80 ng/g. The “tissue distribution of free DMC” value ([4]; liver) was “approximately 120 ng/g”, the “tissue distribution of free DMC” value ([4]; spleen) was roughly 50 ng/g and the “catalytic activity” value (UGT1A8) was “less than 1100 pmol/min/mg”. For the same compound, the “catalytic activity” value (UGT1A10) was “less than 1100 pmol/min/mg”, the “catalytic activity” value (UGT2B7) was “less than 1100 pmol/min/mg” and the DMC concentration [5] was less than 2.0 ng/mL. The IC50 (UGTs) was 13.9 µM and the IC50 (CYP2C9) was 1.4 µM.
